Reference: US10576039B2, “Ophthalmic formulation comprising citicoline carried by liposome for the treatment of glaucoma” (Omikron Italia S.r.l., priority 2016, dated 2020)

Legend:
[1] = Citicoline in vitreous humour and blood by HPLC after topical instillation of liposome solution; format: in vivo, male mice of Wistar-Kyoto strain
Excerpt: For the experimental group 12 animals were used for an adequate statistical management of the results (average, standard deviation and significance).
The used number of animals, following statistical evaluation, represents the minimum number therefrom it is possible to obtain significant data. In the study male mice of Wistar-Kyoto strain were used according to previous experiments performed by the research group.
The animals were kept and manipulated in a structure suitable for keeping the animals under optimum conditions (temperature, humidity, ventilation, hygienic conditions). In the study a formulation in solution for ophthalmic use was utilized constituted by […] liposomes including 2% citicoline sodium salt. […]
Moreover on each animal an endocardial blood sample was taken after total anaesthesia both before and after treatment, just before being sacrificed, by using a test tube with EDTA; on such sample, for each animal, the blood count and citicoline presence were determined. […]
After extraction and subsequent centrifugation at 13,000 rpm for 5 minutes at 5° C. the supernatant was taken and injected into a HPLC system equipped with a ultraviolet detector Diode Array and chromatographic column C18—Kromasil 250×4.6 mm with 5-μm particles. Of course, all samples, even the checks, were subjected to the same kind of treatment before being analysed in HPLC. […]

[2] = taken orally, cited from earlier work

For C[N+](C)(C)CCOP(=O)(O)OP(=O)([O-])OC[C@H]1O[C@@H](n2ccc(N)nc2=O)[C@H](O)[C@@H]1O [Citicoline, cytidine-5′-diphosphocholine], the “vitreous humour citicoline as % of the amount applied topically” value ([1]; eyes treated topically with liposome solution for three days) is listed as 13%, the “presence/penetration of citicoline in the vitreous humour (in words)” value ([1]; topical treatment, HPLC elution profile, comparison with citicoline administered in solution (Parisi et al., 2015; Roberti et al., 2015)) is listed as “present in high concentrations” and the “time of plasma peak after ingestion” value ([2]; first peak) is listed as 1 h. The “time of larger second plasma peak” value ([2]; later peak) was 24 h and the “fraction excreted in the feces” value [2] was “less than 1%”.
